The record followed here is patent publication US20070118920A1, “Herbicide-resistant sunflower plants, polynucleotides encoding herbicide-resistant acetohydroxyacid synthase large subunit proteins, and methods of use” (priority 2005, published 2007).

Assay [1] concerns homozygous M5 MUT9 sunflower plants. Put plainly: Field trial, tolerance to sulfonylurea herbicides (% injury). Format: in vivo, Helianthus annuus. Conditions: six-leaf stage. The text has this:
(§1) To evaluate the resistance of MUT9 sunflower plants to sulfonylurea herbicides, RHA266 (wild-type) and MUT9 sunflower plants were planted outdoors in Balcarce, Argentina during the growing season in an RCBD field trial with two replications to evaluate the tolerance of homozygous M5 MUT9 plants to the sulfonylurea herbicides tribenuron methyl (TBM) and thifensulfuron (TFS) at 1× and 2× rates applied at the six-leaf stage. Due to the lack of MUT9 seed, one herbicide was sprayed in each replication. The 1× rates for TBM and TFS are 13.15 g a.i./ha and 4.4 g a.i./ha, respectively.

Assay [2] has as its system RHA266 (wild-type) sunflower plants. The description is as above. Format: in vivo, Helianthus annuus. Conditions: six-leaf stage.
Excerpt: as §1

The mark [3] stands for this setting: rate 1X (TBM 13.15 g a.i./ha, TFS 4.4 g a.i./ha).
Where [4] appears, read: rate 2X (1X: TBM 13.15 g a.i./ha, TFS 4.4 g a.i./ha).

Turning to `COC(=O)c1ccccc1S(=O)(=O)NC(=O)N(C)c1nc(C)nc(OC)n1` [TBM, tribenuron methyl], the “% Injury” value in assay [1] (setting [3]) was 75%; in assay [1] (setting [4]), 75%; in assay [2] (setting [4]), 45%.
Take `COc1nc(C)nc(NC(=O)NS(=O)(=O)c2ccsc2C(=O)O)n1` [TFS, thifensulfuron]: the “% Injury” value in assay [1] (setting [3]), in assay [1] (setting [4]), in assay [2] (setting [3]) and in assay [2] (setting [4]) was 75% each time.
